Results as given in publication PMC7802075 (ACS Infectious Diseases, 2020).
Counter-ions that a name gives are not always drawn. Like-named read-outs stand apart in the source and are kept apart here. Where a SMILES comes first, the peptide text is derived from it.

Biological target: T1, LmjIPCS (inositol phosphorylceramide synthase from L. major) (Leishmania major, UniProt E9AFX2)
T1 sequence (E9AFX2 1-338): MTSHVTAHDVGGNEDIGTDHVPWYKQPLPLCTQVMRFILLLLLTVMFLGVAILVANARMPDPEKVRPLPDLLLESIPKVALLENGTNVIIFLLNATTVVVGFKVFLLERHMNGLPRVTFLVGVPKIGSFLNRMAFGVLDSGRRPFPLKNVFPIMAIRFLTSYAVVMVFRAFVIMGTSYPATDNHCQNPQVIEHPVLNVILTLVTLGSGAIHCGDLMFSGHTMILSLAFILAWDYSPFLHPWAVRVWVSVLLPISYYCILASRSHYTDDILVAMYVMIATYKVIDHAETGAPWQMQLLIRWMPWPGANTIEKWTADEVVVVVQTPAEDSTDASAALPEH
Assay: biochemical
Type: biochemical
Set-up: inhibition: dose or concentration left out as unconfirmed
Conditions: for inhibition: read-out: inhibition LmjIPCS; for inhibition at 20000 µM: read-out: 20mM inhibition LmjIPCS

[1] = screening of NINDS set, sheet Screen 1
[2] = NINDS set screen, single concentration printed as 20mM
[3] = NINDS set screen, compound at 20mM (so in the source)
[4] = single concentration 20mM as printed, screening of NINDS set, sheet Screen 1

NC[C@H]1CC[C@H](C(=O)O)CC1 [TRANEXAMIC ACID]
inhibition [1]: 2.2%

CNC[C@H](O)c1cccc(O)c1 [PHENYLEPHRINE]
inhibition (NINDS set screen): 25%

CCCC(=O)Nc1ncnc2c1ncn2[C@@H]1O[C@@H]2COP(=O)(O)O[C@H]2[C@H]1OC(=O)CCC [BUCLADESINE]
inhibition at 20000 µM: -1.88%

NCC(=O)CCC(=O)O [AMINOLEVULINIC ACID]
inhibition: 28%

CC(C)Cn1c(=O)n(C)c(=O)c2[nH]cnc21 [ISOBUTYLMETHYLXANTHINE]
inhibition: 14%

CC(C)(C)NCC(O)COc1cccc2c1CC(O)C(O)C2 (stereo not shown) [NADOLOL]
inhibition [1]: 9%

C[N+]12CCC(CC1)C(OC(=O)C(O)(c1ccccc1)c1ccccc1)C2 (stereo not shown) [CLIDINIUM BROMIDE]
20mM inhibition LmjIPCS: 54%

O[C@@H]1CCCC[C@H]1N1CCC(c2ccccc2)CC1 (racemic) [VESAMICOL]
inhibition at 20000 µM: 14%

O=c1cc(-c2ccccc2)oc2cc(O)cc(O)c12 [CHRYSIN]
inhibition: 22%

CN1CCc2cccc3c2[C@H]1Cc1ccc(O)c(O)c1-3 [APOMORPHINE]
20mM inhibition LmjIPCS [2]: 47%

CNC(C)(C)Cc1ccccc1 [MEPHENTERMINE]
inhibition at 20000 µM: 22%

C[C@H]1CC[C@]2(NC1)O[C@H]1C[C@H]3[C@@H]4CC[C@H]5C[C@@H](O[C@@H]6O[C@H](CO)[C@H](O[C@@H]7O[C@H](CO)[C@@H](O)[C@H](O[C@@H]8OC[C@@H](O)[C@H](O)[C@H]8O)[C@H]7O[C@@H]7O[C@H](CO)[C@@H](O)[C@H](O)[C@H]7O)[C@H](O)[C@H]6O)CC[C@]5(C)[C@H]4CC[C@]3(C)[C@H]1[C@@H]2C [TOMATINE]
inhibition at 20000 µM: 12%

COc1cc([C@@H]2c3cc4c(cc3[C@H](O)[C@H]3COC(=O)[C@@H]23)OCO4)cc(OC)c1OC [PICROPODOPHYLLOTOXIN]
inhibition at 20000 µM: 7.47%

N=C(N)NC(=O)c1nc(Cl)c(N2CCCCCC2)nc1N [N,N-HEXAMETHYLENEAMILORIDE]
20mM inhibition LmjIPCS [2]: 65%

Cc1ccsc1/C=C/C1=NCCCN1C [MORANTEL]
20mM inhibition LmjIPCS: 60%

O=C(O)CN(CC(=O)O)Cc1cc2c(cc1O)Oc1cc(O)c(CN(CC(=O)O)CC(=O)O)cc1C21OC(=O)c2ccccc21 [CALCEIN]
inhibition at 20000 µM: 0%

c1ccc(CN(CC2=NCCN2)c2ccccc2)cc1 [ANTAZOLINE]
20mM inhibition LmjIPCS: 61%

Oc1c(Br)cc(Br)c2cccnc12 [BROXYQUINOLINE]
20mM inhibition LmjIPCS: 61%

CN1[C@@H](CC(=O)c2ccccc2)CCC[C@H]1C[C@H](O)c1ccccc1 [LOBELINE]
20mM inhibition LmjIPCS: 38%

CCCCN1CCCCC1C(=O)Nc1c(C)cccc1C (stereo not shown) [BUPIVACAINE]
inhibition [1]: 5.35%

NC(Cn1ccc(=O)c(O)c1)C(=O)O (stereo not shown) [MIMOSINE]
inhibition at 20000 µM: 3%

CC[C@H]1OC(=O)[C@H](C)[C@@H](O[C@H]2C[C@@](C)(OC)[C@@H](O)[C@H](C)O2)[C@H](C)[C@@H](O[C@@H]2O[C@H](C)C[C@H](N(C)C)[C@H]2O)[C@](C)(O)C[C@@H](C)[C@@H]2N[C@@H](COCCOC)O[C@H]([C@H]2C)[C@]1(C)O [DIRITHROMYCIN]
20mM inhibition LmjIPCS: 47%

CC(=O)OCC(=O)[C@@]12OC(C)(C)O[C@@H]1C[C@H]1[C@@H]3C[C@H](F)C4=CC(=O)C=C[C@]4(C)[C@@]3(F)[C@@H](O)C[C@@]12C [FLUOCINONIDE]
inhibition at 20000 µM: 6%

NS(=O)(=O)c1cc(C2(O)NC(=O)c3ccccc32)ccc1Cl (stereo not shown) [CHLORTHALIDONE]
20mM inhibition LmjIPCS: 42%

COc1cccc(OC)c1C(=O)N[C@@H]1C(=O)N2[C@@H]1SC(C)(C)[C@@H]2C(=O)O [METHICILLIN]
inhibition at 20000 µM: 17%

Cc1onc(-c2c(Cl)cccc2Cl)c1C(=O)N[C@@H]1C(=O)N2[C@@H]1SC(C)(C)[C@@H]2C(=O)O [DICLOXACILLIN]
inhibition at 20000 µM: 2.55%

N[C@@H](C(=O)N[C@@H]1C(=O)N2C(C(=O)O)=C(Cl)CS[C@H]12)c1ccccc1 [CEFACLOR]
inhibition: 10%

CN1C[C@H](CNC(=O)OCc2ccccc2)C[C@@H]2c3cccc4c3c(cn4C)C[C@H]21 [METERGOLINE]
inhibition: 11%

CCCc1ncc(C[n+]2ccccc2C)c(N)n1 [AMPROLIUM]
20mM inhibition LmjIPCS: 44%

CO[C@H]1[C@H](O)[C@H](O[C@H]2CC[C@@]3(C=O)[C@H](CC[C@@H]4[C@@H]3CC[C@]3(C)[C@@H](C5=CC(=O)OC5)CC[C@]43O)C2)O[C@@H](C)[C@@H]1O [PERUVOSIDE]
inhibition at 20000 µM: 12%

COc1ccc2[nH]cc(CCNC(C)=O)c2c1 [MELATONIN]
inhibition: -5.63%

O=C(O)CCC(=O)c1ccc(-c2ccccc2)cc1 [FENBUFEN]
inhibition at 20000 µM: 12%

Clc1ccc(C(OCCN2CCCCC2)c2ccccc2)cc1 (stereo not shown) [CLOPERASTINE]
inhibition (NINDS set screen): 13%

N.N.[Cl][Pt][Cl] [CISPLATIN]
20mM inhibition LmjIPCS [3]: 21%

C[N+](C)(C)CC(O)CC(=O)[O-] (stereo not shown) [CARNITINE]
inhibition: 15%

CCCCCC(=O)O[C@]1(C(C)=O)CC[C@H]2[C@@H]3CCC4=CC(=O)CC[C@]4(C)[C@H]3CC[C@@]21C [HYDROXYPROGESTERONE CAPROATE]
20mM inhibition LmjIPCS: 57%

NC(=O)c1ccc([N+](=O)[O-])cc1Cl [AKLOMIDE]
inhibition [1]: 4%

CC1(C)S[C@@H]2[C@H](NC(=O)[C@H](NC(=O)N3CCNC3=O)c3ccccc3)C(=O)N2[C@H]1C(=O)O [AZLOCILLIN]
inhibition at 20000 µM: -4%

NCCCC(=O)O [gamma-AMINOBUTYRIC ACID]
inhibition: -20%

Cc1cc(O)ccc1Cl [CHLOROCRESOL]
20mM inhibition LmjIPCS: 49%

CC(=O)Oc1ccc2c(c1)CC[C@@H]1[C@@H]2CC[C@]2(C)[C@@H](OC(C)=O)CC[C@@H]12 [ESTRADIOL DIACETATE]
20mM inhibition LmjIPCS [4]: 1.59%

C[N+]1(C)CCCC(OC(=O)C(O)(c2ccccc2)c2ccccc2)C1 (stereo not shown) [MEPENZOLATE BROMIDE]
inhibition at 20000 µM: 16%

NCCCS(=O)(=O)O [3-AMINOPROPANESULPHONIC ACID]
20mM inhibition LmjIPCS [4]: 3.28%

NC1(C(=O)O)CCCC1 [CYCLOLEUCINE]
inhibition at 20000 µM: 12%

CC(C)(C)NCC(O)c1ccccc1Cl (stereo not shown) [TULOBUTEROL]
20mM inhibition LmjIPCS: 51%

CCC(N)C(O)c1ccc(O)c(O)c1 (stereo not shown) [ETHYLNOREPINEPHRINE]
inhibition at 20000 µM: -9%

O=c1c(O)c(-c2ccc(O)c(O)c2)oc2cc(O)cc(O)c12 [QUERCETIN]
inhibition at 20000 µM: 3.45%

CC(C)C[C@H](N)C(=O)N[C@@H](C)C(=O)O [L-LEUCYL-L-ALANINE] (H-Leu-Ala-OH)
20mM inhibition LmjIPCS: 5.46%

CC(=O)N1CCCC1C(=O)O (stereo not shown) [N-ACETYLPROLINE]
inhibition (NINDS set screen): -1.28%

CCOC(=O)C1=C[C@]2(CC)CCCN3CCc4c(n1c1ccccc41)[C@@H]32 [VINPOCETINE]
20mM inhibition LmjIPCS [2]: 36%

CCN(CC)CCNC(=O)c1cc(Br)c(N)cc1OC [BROMOPRIDE]
inhibition: 17%

CC(CCc1ccccc1)NC(C)C(O)c1ccc(O)cc1 (stereo not shown) [NYLIDRIN HYDROCHLORIDE]
20mM inhibition LmjIPCS [2]: 54%

COc1ccc(OC)c(C(O)CNC(=O)CN)c1 (stereo not shown) [MIDODRINE]
inhibition at 20000 µM: 13%

CCCc1nc(C(C)(C)O)c(C(=O)OCc2oc(=O)oc2C)n1Cc1ccc(-c2ccccc2-c2nnn[nH]2)cc1 [OLMESARTAN MEDOXOMIL]
inhibition at 20000 µM: 21%

COc1cc(/C=C/C(=O)CC(=O)/C=C/c2ccc(O)c(OC)c2)ccc1O [CURCUMIN]
inhibition at 20000 µM: -10%

O=C1C[C@@H]2OCC=C3CN4CC[C@]56c7ccccc7N1[C@H]5[C@H]2[C@H]3C[C@H]46 [STRYCHNINE]
inhibition at 20000 µM: 3%

CCN(CC)CCCC(C)Nc1c2ccc(Cl)cc2nc2ccc(OC)cc12 (stereo not shown) [QUINACRINE]
20mM inhibition LmjIPCS: 59%

CCN(CCCCOC(=O)c1ccc(OC)c(OC)c1)C(C)Cc1ccc(OC)cc1 (stereo not shown) [MEBEVERINE]
20mM inhibition LmjIPCS: 54%

Nc1cc(N2CCCCC2)nc(N)[n+]1[O-] [MINOXIDIL]
inhibition: 15%

C[N+](C)(C)CCCCCC[N+](C)(C)C [HEXAMETHONIUM]
inhibition at 20000 µM: -4%

CN(N=O)C(=O)N[C@H]1C(O)O[C@H](CO)[C@@H](O)[C@@H]1O (mixture of isomers) [STREPTOZOSIN]
inhibition at 20000 µM: 16%

NS(=O)(=O)c1cc2c(cc1Cl)NCNS2(=O)=O [HYDROCHLOROTHIAZIDE]
inhibition: 13%

C=CCSCC=C [DIALLYL SULFIDE]
inhibition (NINDS set screen): 17%

CCc1cccc2c3c([nH]c12)C(CC)(CC(=O)O)OCC3 (stereo not shown) [ETODOLAC]
inhibition: 13%

Oc1cccc(O)c1 [RESORCINOL]
inhibition: 1.29%

S=P(N1CC1)(N1CC1)N1CC1 [THIOTEPA]
inhibition at 20000 µM: 11%

CC1=C(/C=C/C(C)=C/C=C/C(C)=C/C=C/C=C(C)/C=C/C=C(C)/C=C/C2=C(C)CCCC2(C)C)C(C)(C)CCC1 [beta-CAROTENE]
20mM inhibition LmjIPCS: 45%

CN(C)CCCO[C@@H]1[C@H]2OC(C)(C)O[C@H]2O[C@@H]1[C@H](O)CO [AMIPRILOSE]
inhibition [1]: 4%

OCCN1C[C@H](O)[C@@H](O)[C@H](O)[C@H]1CO [MIGLITOL]
inhibition at 20000 µM: -0.821%

CCOC(=O)NNc1nncc2ccccc12 [TODRALAZINE]
inhibition [1]: 2%

Oc1ccc(Cl)c2cccnc12 [CLOXYQUIN]
20mM inhibition LmjIPCS [2]: 59%

Cn1c(=O)c2[nH]c(C3CCCC3)nc2n(C)c1=O [8-CYCLOPENTYLTHEOPHYLLINE]
inhibition at 20000 µM: 4.71%

CN[C@@H](C)[C@@H](O)c1ccccc1 [PSEUDOEPHEDRINE]
inhibition at 20000 µM: 2.14%

N#Cc1c(Cl)c(Cl)c(Cl)c(C#N)c1Cl [TETRACHLOROISOPHTHALONITRILE]
20mM inhibition LmjIPCS [3]: 15%

CCN(CCO)CCCC(C)Nc1ccnc2cc(Cl)ccc12 (stereo not shown) [HYDROXYCHLOROQUINE]
inhibition (NINDS set screen): 31%

CCn1cc(C(=O)O)c(=O)c2cc(F)c(N3CCNCC3)cc21 [NORFLOXACIN]
inhibition: 17%
